Experimental data taken from patent US20250381179A1, “CHROMAN-BASED COMPOUNDS FOR TREATING CANCER” (priority 2024, published 2025).
Entries after “also recorded” stand apart in the source; their conditions may differ.

Experiment: Phase 1 study: safety and tolerability (TEAEs, NCI CTCAE v5.0)
Experimental: The study employed an open-label, 3+3 design, with the option of adding backfill patients to each cohort cleared and deemed safe. […] Tumor responses were assessed every 2 cycles using RECIST v1.1 criteria. […] The study also involves an ongoing dose escalation study where participants receive 100 mg, 200 mg, 300 mg, 400 mg, and 600 mg once daily (QD) dose levels.
Safety was assessed through the analysis of the reported incidence of treatment-emergent AEs. Treatment-emergent AEs are those with an onset on or after the initiation of therapy and will be graded according to NCI CTCAE Version 5.0. Other safety endpoints, including laboratory results, vital signs, and ECG findings, were summarized for all patients in the Safety set.

[1] = Cohort 2/200 mg QD, patient 4, first listed event
[2] = Cohort 2/200 mg QD, patient 4, second listed event
[3] = Cohort 3/300 mg QD, patient 1, first listed event
[4] = Cohort 3/300 mg QD, patient 1, second listed event

O=C1CC[C@H](N2Cc3cc(N4CCN(CC5CCN(c6ccc([C@@H]7c8ccc(O)cc8OC[C@@H]7c7ccccc7)cc6F)CC5)CC4)ccc3C2=O)C(=O)N1 [compound (1-g), (S)-3-(5-(4-((1-(2-fluoro-4-((3S,4R)-7-hydroxy-3-phenylchroman-4-yl)phenyl)piperidin-4-yl)methyl)piperazin-1-yl)-1-oxoisoindolin-2-yl)piperidine-2,6-dione]
Duration of TEAE leading to dose interruption: Pain in extremity [1]: 56 days | Related to Compound (1-g), TEAE leading to dose interruption: Pain in extremity [1]: No | CTCAE Grade of TEAE leading to dose interruption: Pain in extremity [2]: 2 | Related to Compound (1-g), TEAE leading to dose interruption: Pain in extremity [2]: No | participants with TEAEs that led to dose interruption (Cohort 3 (300 mg QD)): 2 participants | CTCAE Grade of TEAE leading to dose interruption: Anaemia (Cohort 3/300 mg QD, patient 1): 3 | Related to Compound (1-g), TEAE leading to dose interruption: Anaemia (Cohort 3/300 mg QD, patient 1): No | CTCAE Grade of TEAE leading to dose interruption: Acute kidney injury [3]: 3 | Duration of TEAE leading to dose interruption: Acute kidney injury [3]: 6 days | Related to Compound (1-g), TEAE leading to dose interruption: Acute kidney injury [3]: No | CTCAE Grade of TEAE leading to dose interruption: Acute kidney injury [4]: 3 | Duration of TEAE leading to dose interruption: Acute kidney injury [4]: 7 days | Related to Compound (1-g), TEAE leading to dose interruption: Acute kidney injury [4]: No | CTCAE Grade of TEAE leading to dose interruption: Muscular weakness (Cohort 3/300 mg QD, patient 2): 2 | CTCAE Grade of TEAE leading to dose interruption: Upper respiratory tract infection (Cohort 3/300 mg QD, patient 2): 2 | Duration of TEAE leading to dose interruption: Upper respiratory tract infection (Cohort 3/300 mg QD, patient 2): 8 days | Related to Compound (1-g), TEAE leading to dose interruption: Muscular weakness (Cohort 3/300 mg QD, patient 2): No | Related to Compound (1-g), TEAE leading to dose interruption: Upper respiratory tract infection (Cohort 3/300 mg QD, patient 2): No | participants with TEAEs that led to dose interruption (Cohort 4 and 5 (400, 600 mg QD)): No participant experienced TEAEs that led to dose interruption | Constipation, Related-TEAE All Grades (N = 37): 3 n (%) | Constipation, Related-TEAE Grade ≥ 3 (N = 37): 0 n (%) | Constipation, TEAE All Grades (N = 37): 4 (11) n (%) | Constipation, TEAE Grade ≥ 3 (N = 37): 0 n (%) | Dehydration, Related-TEAE All Grades (N = 37): 0 n (%) | Dehydration, Related-TEAE Grade ≥ 3 (N = 37): 0 n (%) | Dehydration, TEAE All Grades (N = 37): 5 (14) n (%) | Dehydration, TEAE Grade ≥ 3 (N = 37): 2 (5) n (%) | Fatigue, Related-TEAE All Grades (N = 37): 2 n (%) | Fatigue, Related-TEAE Grade ≥ 3 (N = 37): 0 n (%) | Fatigue, TEAE All Grades (N = 37): 6 (16) n (%) | Fatigue, TEAE Grade ≥ 3 (N = 37): 1 (3) n (%) | Grade 5 event of seizure (N = 37): 1 event | Hot flush, Related-TEAE All Grades (N = 37): 5 n (%) | Hot flush, Related-TEAE Grade ≥ 3 (N = 37): 0 n (%) | Hot flush, TEAE All Grades (N = 37): 5 (14) n (%) | Hot flush, TEAE Grade ≥ 3 (N = 37): 0 n (%) | Nausea, Related-TEAE All Grades (N = 37): 5 n (%) | Nausea, Related-TEAE Grade ≥ 3 (N = 37): 0 n (%) | Nausea, TEAE All Grades (N = 37): 7 (19) n (%) | Nausea, TEAE Grade ≥ 3 (N = 37): 0 n (%) | Neutrophil count decreased, Related-TEAE All Grades (N = 37): 4 n (%) | Neutrophil count decreased, Related-TEAE Grade ≥ 3 (N = 37): 0 n (%) | Neutrophil count decreased, TEAE All Grades (N = 37): 6 (16) n (%) | Neutrophil count decreased, TEAE Grade ≥ 3 (N = 37): 1 (3) n (%) | TEAE constipation, participants (N = 37): 10.8% | TEAE dehydration, participants (N = 37): 13.5% | TEAE fatigue, participants (N = 37): 16.2% | TEAE hot flush, participants (N = 37): 13.5% | TEAE nausea, participants (N = 37): 18.9% | TEAE neutrophil count decreased, participants (N = 37): 16.2% | compound-related SAEs (N = 37): No compound (1-g)-related SAEs were observed | deaths reported, all assessed as unrelated to compound (1-g) (N = 37): 3 deaths | dose reductions or treatment discontinuations due to TEAEs (N = 37): no dose reductions or treatment discontinuations due to TEAEs | grade of treatment-related AEs (N = 37): All treatment-related AEs were Grade 1 or 2 | participants with at least a TEAE (N = 37): 78% | patients experiencing SAEs (nine SAEs) (N = 37): 8 patients | related TEAE hot flush, participants (N = 37): 13.5% | related TEAE nausea, participants (N = 37): 13.5% | related TEAE neutrophil count decrease, participants (N = 37): 10.8% | relatedness of TEAEs that led to dose interruption (N = 37): None of these were considered related to compound (1-g) | participants with compound (1-g) related TEAEs (N = 37, fifteen participants): 40.5% | participants with Grade 23 TEAEs (N = 37, ten participants): 27.0% | Patients with Any Compound (1-g) related TEAE (Overall (N = 37)): 15 (40.5) n (%) | Patients with Any TEAE (Overall (N = 37)): 29 (78.4) n (%) | TEAE: Abdominal Distension (Overall (N = 37)): 1 (2.7) n (%) | TEAE: Abdominal Pain (Overall (N = 37)): 2 (5.4) n (%) | TEAE: Acute Kidney Injury (Overall (N = 37)): 1 (2.7) n (%) | TEAE: Adrenal Insufficiency (Overall (N = 37)): 1 (2.7) n (%) | TEAE: Alopecia (Overall (N = 37)): 1 (2.7) n (%) | TEAE: Anaemia (Overall (N = 37)): 2 (5.4) n (%) | TEAE: Anxiety (Overall (N = 37)): 1 (2.7) n (%) | TEAE: Arthralgia (Overall (N = 37)): 2 (5.4) n (%) | TEAE: Axillary Vein Thrombosis (Overall (N = 37)): 1 (2.7) n (%) | TEAE: Back Pain (Overall (N = 37)): 3 (8.1) n (%) | TEAE: Basal Cell Carcinoma (Overall (N = 37)): 1 (2.7) n (%) | TEAE: Breast Pain (Overall (N = 37)): 1 (2.7) n (%) | TEAE: Confusional State (Overall (N = 37)): 1 (2.7) n (%) | TEAE: Constipation (Overall (N = 37)): 4 (10.8) n (%) | TEAE: Cough (Overall (N = 37)): 1 (2.7) n (%) | TEAE: Covid-19 Pneumonia (Overall (N = 37)): 1 (2.7) n (%) | TEAE: Dehydration (Overall (N = 37)): 5 (13.5) n (%) | TEAE: Diarrhoea (Overall (N = 37)): 3 (8.1) n (%) | TEAE: Dizziness (Overall (N = 37)): 1 (2.7) n (%) | TEAE: Dysgeusia (Overall (N = 37)): 1 (2.7) n (%) | TEAE: Dyspepsia (Overall (N = 37)): 1 (2.7) n (%) | TEAE: Dyspnoea (Overall (N = 37)): 3 (8.1) n (%) | TEAE: Dysuria (Overall (N = 37)): 2 (5.4) n (%) | TEAE: Eructation (Overall (N = 37)): 1 (2.7) n (%) | TEAE: Fall (Overall (N = 37)): 2 (5.4) n (%) | TEAE: Fatigue (Overall (N = 37)): 6 (16.2) n (%) | TEAE: Flatulence (Overall (N = 37)): 2 (5.4) n (%) | TEAE: Fracture (Overall (N = 37)): 1 (2.7) n (%) | TEAE: Fungal Infection (Overall (N = 37)): 1 (2.7) n (%) | TEAE: Haematoma (Overall (N = 37)): 1 (2.7) n (%) | TEAE: Hot Flush (Overall (N = 37)): 5 (13.5) n (%) | TEAE: Hyperglycaemia (Overall (N = 37)): 1 (2.7) n (%) | TEAE: Hyperhidrosis (Overall (N = 37)): 3 (8.1) n (%) | TEAE: Hypokalaemia (Overall (N = 37)): 2 (5.4) n (%) | TEAE: Hypotension (Overall (N = 37)): 1 (2.7) n (%) | TEAE: Influenza Like Illness (Overall (N = 37)): 1 (2.7) n (%) | TEAE: Insomnia (Overall (N = 37)): 3 (8.1) n (%) | TEAE: Lower Respiratory Tract Congestion (Overall (N = 37)): 1 (2.7) n (%) | TEAE: Lymphocyte Count Decreased (Overall (N = 37)): 1 (2.7) n (%) | TEAE: Muscle Spasm (Overall (N = 37)): 1 (2.7) n (%) | TEAE: Muscular Weakness (Overall (N = 37)): 2 (5.4) n (%) | TEAE: Musculoskeletal Stiffness (Overall (N = 37)): 1 (2.7) n (%) | TEAE: Nail Disorder (Overall (N = 37)): 1 (2.7) n (%) | TEAE: Nasal Congestion (Overall (N = 37)): 1 (2.7) n (%) | TEAE: Nausea (Overall (N = 37)): 7 (18.9) n (%) | TEAE: Neutrophil Count Decreased (Overall (N = 37)): 6 (16.2) n (%) | TEAE: Oedema Peripheral (Overall (N = 37)): 2 (5.4) n (%) | TEAE: Ophthalmic Migraine (Overall (N = 37)): 1 (2.7) n (%) | TEAE: Oral Pain (Overall (N = 37)): 1 (2.7) n (%) | TEAE: Pain In Extremity (Overall (N = 37)): 1 (2.7) n (%) | TEAE: Pharyngitis (Overall (N = 37)): 1 (2.7) n (%) | TEAE: Platelet Count Decreased (Overall (N = 37)): 2 (5.4) n (%) | TEAE: Pleural Effusion (Overall (N = 37)): 1 (2.7) n (%) | TEAE: Pneumonia (Overall (N = 37)): 2 (5.4) n (%) | TEAE: Productive Cough (Overall (N = 37)): 1 (2.7) n (%) | TEAE: Rash Maculo-Papular (Overall (N = 37)): 2 (5.4) n (%) | TEAE: Rhinitis Allergic (Overall (N = 37)): 1 (2.7) n (%) | TEAE: Rib Fracture (Overall (N = 37)): 1 (2.7) n (%) | TEAE: Seizure (Overall (N = 37)): 1 (2.7) n (%) | TEAE: Sepsis (Overall (N = 37)): 1 (2.7) n (%) | TEAE: Tremor (Overall (N = 37)): 2 (5.4) n (%) | TEAE: Upper Respiratory Tract Infection (Overall (N = 37)): 3 (8.1) n (%) | TEAE: Urinary Tract Infection (Overall (N = 37)): 2 (5.4) n (%) | TEAE: Vaginal Haemorrhage (Overall (N = 37)): 1 (2.7) n (%) | TEAE: Vomiting (Overall (N = 37)): 2 (5.4) n (%) | related TEAE: Alopecia (Overall (N = 37)): 1 (2.7) n (%) | related TEAE: Arthralgia (Overall (N = 37)): 1 (2.7) n (%) | related TEAE: Constipation (Overall (N = 37)): 3 (8.1) n (%) | related TEAE: Diarrhea (Overall (N = 37)): 3 (8.1) n (%) | related TEAE: Dysgeusia (Overall (N = 37)): 1 (2.7) n (%) | related TEAE: Eructation (Overall (N = 37)): 1 (2.7) n (%) | related TEAE: Fatigue (Overall (N = 37)): 2 (5.4) n (%) | related TEAE: Flatulence (Overall (N = 37)): 1 (2.7) n (%) | related TEAE: Hyperhidrosis (Overall (N = 37)): 1 (2.7) n (%) | related TEAE: Nail Disorder (Overall (N = 37)): 1 (2.7) n (%) | related TEAE: Platelet Count Decreased (Overall (N = 37)): 1 (2.7) n (%) | related TEAE: Tremor (Overall (N = 37)): 1 (2.7) n (%) | related TEAE: Vomiting (Overall (N = 37)): 1 (2.7) n (%) | Compound (1-g) related TEAEs of CTCAE grade >=3 (all cohorts, N = 37): no Grade≥3 TEAEs were considered as related to compound (1-g); also recorded: No data meets output criteria | participants with TEAEs that led to dose interruption (all cohorts, N = 37): Nine | dose-related trend in incidence of related TEAEs (between 100 mg and 600 mg): No dose-related trends were evident | related TEAE: Hot Flush (human, in vivo): 5 (13.5) n (%) | related TEAE: Nausea (human, in vivo): 5 (13.5) n (%) | related TEAE: Neutrophil Count Decreased (human, in vivo): 4 (10.8) n (%)
